Patent publication EP0362382A1, “METHOD OF STERILIZING PLANT POLLEN” (VSESOJUZNY NAUCHNO-ISSLEDOVATELSKY INST. SELSKOKHOZYAISTV. …, priority 1988, dated 1989)

Experiments:
Format in all cases: in vivo
tetraploidem Roggen = assay: Field test of gametocidal activity (sterilisation of anthers), tetraploid rye; settings: Sorte Belta; V. Periode der Organogenese; 1%ige wäßrige Emulsion; 6 kg/ha
Excerpt: (§1) Die gametozide Aktivitat der erfindungsgemäßen Sterilisationsmittel war im Feldversuch in verschiedenen bodenklimatischen Zonen mit Teilstücken von 10 m^2 Größe in drei- bis viermaliger Wiederholung festgestellt. Jedes Sterilisationsmittel wurde mindenstens 5 Jahre lang geprüft.
(§2) Die Entwicklung der Perioden der Organogenese wird zytologisch überwacht. Die Behandlung von Pflanzen mit dem Sterilisationsmittel erfolgt am Anfang der fünften Periode der Organogenese nach Kupermann.
(§3) Mit dem Ährenschieben verwirklicht man die Isolierung von Hauptähren und anderen Stockwerken in Pergamentbeuteln. Bei Weizen und Tritikale werden Einzelisolatoren benutzt. Bei Roggen schließt man je Ähre 5 bis 7 verschiedene nebeneinander befindliche Pflanzen unter einen gemeinsamen Isolator ein. Bei Hierse wird jede Rispe getrennt isoliert. Der Sterilitätsprozentsatz (X) für Weizen, Roggen, Tritikale und Hirse wird nach der Formel [formula] ermittelt.
(§4) Die Kornzahl in nicht isolierten Ähren von Kontrollpflanzen wird bedingt für 100 % Ansetzen bei freier Bestäubung angenommen.
(§5) Um zuverlässige Angaben zu erhalten, verwendet man 20 bis 25 Isolatoren jeder Wiederholung für Weizen und Tritikale, 10 .bis 15 Isolatoren jeder Wiederholung für Roggen und Hirse.
Pflanzen von tetraploidem Roggen Sorte Belta werden in der V. Periode der Organogenese (nach Kupermann) mit 1%iger wäßriger Emulsion von d, δ' -Thiodivaleriansäure, Natriumsalz der δ, δ' -Thiodivaleriansäure, δ, δ' -Sulfonylvaleriansäure, Natriumsalz der δ, δ' -Sulfonyldivaleriansäure, Kaliumsalz der d, δ' -Sulfonyldivaleriansäure, Bis(di-n-butyläther) der δ, δ' -Thiodivaleriansäure, Bis(2-Äthylhexyläther) der δ, δ'-Thiodivaleriansäure, 4-Karboxybutyldezylsulfid behandelt. Die Emulsion enthält 0,1 Masse% Kalziumalkylbenzolaulfonat und 0,01 Masse% Dimethylsulfoxid. Der Verbrauch an Präparat beträgt 6 kg/ha. Als Kontrolle dienen Pflanzen, behandelt mit einem Verdünner ohne Sterilisationsmittel. Die Prüfergebnisse sind in der Tabelle 11 angegeben. […] Periode der Organogese erhalten.

Hirse = assay: Field test of gametocidal activity (sterilisation of anthers), millet; settings: V. Periode der Organogenese, 1%ige wäßrige Emulsion
Excerpt: as §1, §2, §3, §4, §5
Pflanzen der Hirse Sorte Mironowskoe 94 werden in der V. Periode der Organogenese (nach Kupermann) mit 1%iger wäßriger Emulsion von 4-Karboxybutyldezylsulfid, δ, δ' -Sulfonyldivaleriansäure, Bis(2-äthylhexyläther) der δ, δ' -Thiodivaleriansäure behandelt. Die Emulsion enthält 0,1 Masse% Kalziumalkylbenzolsulfonat mit 12 bis 14 Kohlenstoffatomen und 0,01 Masse% Dodezylsulfat. Der Verbrauch an Präparat beträgt 10 kg/ha. Als Kontrolle dienen Pflanzen, behandelt mit einem Verdünner ohne Sterilieationsmittel. Die Prüfergebnisse sind in der Tabelle 14 angegeben. […] Periode der Organogenese erhalten.
Pflanzen der Hirse Sorte K9009, Poltawskaja oblast (Poltawaer Gebiet) werden in der V.Periode der Organogenese (nach Kupermann) mit 1%iger wäßriger Emulsion von δ, δ' Thiodivaleriansäure, Natriumsälz der δ, δ'- -Thiodivaleriansäure, δ, δ' -Sulfonyldivaleriansäure, Bis([…]) der d, δ' -Thiodivaleriansäure, 4-Karboxybutyldezylsulfid behandelt. Die Emulsion enthält 0,1 Masse% Kalziumalkylbenzolsulfonat mit 12 bis 14 Kohlenstoffatomen und 0,01 Masse% Tetrahydrofuran, Der Verbrauch an Präparat beträgt 6 kg/ha. Als Kontrolle dienen . Pflanzen, behandelt mit einem Verdünner ohne Sterilisationsmittel. Die Prüfergebnisse sind in der Tabelle 15 angegeben. […] Periode der Organogenese erhalten.
Pflanzen der Hirse Sorte K-9693 Kormowoe 1 werden in der V. Periode der Organogenese (nach Kupermann) mit l%iger wäßriger Emulsion von Bis(di-n-butyläther) der δ, δ' -Thiodivaleriansäure, Natriumsalz der δ, δ' -Sulfonyldivaleriansäure behandelt. Der Verbrauch an Präparat beträgt 6 kg/ha. Als Kontrolle dienen Pflanzen, behandelt mit einem Verdünner ohne Sterilisationsmittel. Die Prüfergebnisse sind in der Tabelle 16 angegeben. […] Periode der Organogenese erhalten.

diploidem Roggen = assay: Field test of gametocidal activity (sterilisation of anthers), diploid rye; settings: 1%ige wäßrige Emulsion
Excerpt: as §1, §2, §3, §4, §5
Pflanzen von diploidem Roggen Sorte Wosohod 2 werden in der V. Periode der Organogenese (nach Kupermann) mit 1%iger wäßriger Emulsion von Bis(di-n-butyläther) der δ, δ' -Thiodivaleriansäure, 4-Krboxybutyldezylsulfid, Natriumsalz der δ, δ' -Thiodivaleriansäure, Bis(2-äthylhexyläther) der δ, δ' -Thiodivaleriansäure, δ, δ' -Sulfonyldivaleriansäure, Natriumsalz der δ, δ'-Sulfonyldivaleriansäure, Kaliumsalz der δ, δ' -Sulfonyldivaleriansäure behandelt. Die Emulsion enthält 0,1 Masse% […] mit 12 bis 14 Kohlenstoffatomen und 0,01 Masse% Tetrahydrofuran. Der Verbrauch an Präparat beträgt 6 kg/ha. Als Kontrolle dienen Pflanzen, behandelt mit einem Verdünner ohne Sterilisationsmittel.
Pflanzen von diploidem Roggen Sorte Gibrid 1861/79 werden in der V. und VI. Periode der Organogenese (nach Kupermann) mit 1%iger wäßriger Emulsion von Bis(di-n-butyläther) der δ, δ' -Thiodivaleriansäure, δ, δ' -Thiodivaleriansäure, Natriumsalz der δ δ' -Thiodivaleriansäure, 4-Karboxybutyldezylsulfid, δ , δ' -Sulfonyldivaleriansäure, Kaliumsalz der δ, δ' -Sulfonyldivaleriansäuleriansäure, Kaliumalz der δ' -Sulfonyldivaleriansäure, Bis(2-äthylhexyläther) der δ, δ' -Thiodivaleriansäure behandelt. Die Emulsion enthält 0,1 Masse% Kalziumalkylbenzolsulfonat mit 12 bis 14 Kohlenstoffatomen und 0,01 Masse% Dimethylformamid. Der Verbrauch an Präparat beträgt 8 kg/ha. Als Kontrolle dienen Pflanzen, behandelt mit einem Verdünner ohne Sterilisationsmittel. Die Prüfergebnisse sind in der Tabelle 10 angegeben.

[1] = Sorte K-9693 Kormowoe 1, 6 kg/ha
[2] = Sorte K9009, Poltawskaja oblast, 6 kg/ha
[3] = Sorte Gibrid 1861/79, V. und VI. Periode der Organogenese, 8 kg/ha
[4] = Sorte Wosohod 2, V. Periode der Organogenese, 6 kg/ha

O=C(O)CCCCS(=O)(=O)CCCCC(=O)O [Beispiel 54, Natriumsalz der δ, δ' -Sulfonyldivaleriansäure]
Anzahl von Körnern der Ähre bei freier Bestäubung (tetraploidem Roggen): 34,6
Anzahl von Körnern der Ähre im Isolator (tetraploidem Roggen): 0,0
Prozentsatz der Sterilität (tetraploidem Roggen): 100,0%
Prozentsatz des Ansetzens von Körnern bei freier Bestäubung (tetraploidem Roggen): 78,2%

O=C(O)CCCCS(=O)(=O)CCCCC(=O)O [Beispiel 53, δ, δ' -Sulfonylvaleriansäure]
Anzahl von Körnern der Ähre bei freier Bestäubung (tetraploidem Roggen): 39,0
Anzahl von Körnern der Ähre im Isolator (tetraploidem Roggen): 0,0
Prozentsatz der Sterilität (tetraploidem Roggen): 100,0%
Prozentsatz des Ansetzens von Körnern bei freier Bestäubung (tetraploidem Roggen): 88,2%

Bis(di-n-butyläther) der δ, δ' -Thiodivaleriansäure [Beispiel 73]
Anzahl von Körnern der Rispe bei freier Bestäubung (Hirse; [1]): 122,1
Anzahl von Körnern der Rispe im Isolator (Hirse; [1]): 0,0
Prozentsatz der Sterilität (Hirse; [1]): 100,0%
Prozentsatz des Ansetzens von Körnern bei freier Bestäubung (Hirse; [1]): 83,2%

O=C(O)CCCCSCCCCC(=O)O [Beispiel 51, d, δ' -Thiodivaleriansäure]
Anzahl von Körnern der Ähre bei freier Bestäubung (tetraploidem Roggen): 32,9
Anzahl von Körnern der Ähre im Isolator (tetraploidem Roggen): 0,3
Prozentsatz der Sterilität (tetraploidem Roggen): 99,3%
Prozentsatz des Ansetzens von Körnern bei freier Bestäubung (tetraploidem Roggen): 74,4%

CCCCCCCCCCSCCCCC(=O)O [Beispiel 65, 4-Karboxybutyldezylsulfid]
Anzahl von Körnern der Rispe bei freier Bestäubung (Hirse; Sorte Mironowskoe 94, 10 kg/ha): 323,7
Anzahl von Körnern der Rispe im Isolator (Hirse; Sorte Mironowskoe 94, 10 kg/ha): 0,0
Prozentsatz der Sterilität (Hirse; Sorte Mironowskoe 94, 10 kg/ha): 100,0%
Prozentsatz des Ansetzens von Körnern bei freier Bestäubung (Hirse; Sorte Mironowskoe 94, 10 kg/ha): 88,3%

O=C(O)CCCCSCCCCC(=O)O [Beispiel 52, Natriumsalz der δ, δ' -Thiodivaleriansäure]
Anzahl von Körnern der Ähre bei freier Bestäubung (tetraploidem Roggen): 40,6
Anzahl von Körnern der Ähre im Isolator (tetraploidem Roggen): 0,1
Prozentsatz der Sterilität (tetraploidem Roggen): 99,8%
Prozentsatz des Ansetzens von Körnern bei freier Bestäubung (tetraploidem Roggen): 91,8%

O=C([O-])CCCCS(=O)(=O)CCCCC(=O)[O-].[Na+].[Na+] [Beispiel 74, Natriumsalz der δ, δ' -Sulfonyldivaleriansäure]
Anzahl von Körnern der Rispe bei freier Bestäubung (Hirse; [1]): 103,5
Anzahl von Körnern der Rispe im Isolator (Hirse; [1]): 0,0
Prozentsatz der Sterilität (Hirse; [1]): 100,0%
Prozentsatz des Ansetzens von Körnern bei freier Bestäubung (Hirse; [1]): 70,5%

CCCCC(CC)COC(=O)CCCCSCCCCC(=O)OCC(CC)CCCC (centres unmarked) [Beispiel 57, Bis(2-Äthylhexyläther) der δ, δ'-Thiodivaleriansäure]
Anzahl von Körnern der Ähre bei freier Bestäubung (tetraploidem Roggen): 42,7
Anzahl von Körnern der Ähre im Isolator (tetraploidem Roggen): 0,0
Prozentsatz der Sterilität (tetraploidem Roggen): 100,0%
Prozentsatz des Ansetzens von Körnern bei freier Bestäubung (tetraploidem Roggen): 96,6%

O=C(O)CCCCS(=O)(=O)CCCCC(=O)O [Beispiel 55, Kaliumsalz der d, δ' -Sulfonyldivaleriansäure]
Anzahl von Körnern der Ähre bei freier Bestäubung (tetraploidem Roggen): 34,0
Anzahl von Körnern der Ähre im Isolator (tetraploidem Roggen): 0,0
Prozentsatz der Sterilität (tetraploidem Roggen): 100,0%
Prozentsatz des Ansetzens von Körnern bei freier Bestäubung (tetraploidem Roggen): 76,9%

CCCCCCCCCCSCCCCC(=O)O [Beispiel 72, 4-Karboxybutyldezylsulfid]
Anzahl von Körnern der Rispe bei freier Bestäubung (Hirse; [2]): 100,7
Anzahl von Körnern der Rispe im Isolator (Hirse; [2]): 0,0
Prozentsatz der Sterilität (Hirse; [2]): 100,0%
Prozentsatz des Ansetzens von Körnern bei freier Bestäubung (Hirse; [2]): 77,8%

CCOCCOC(=O)CCCCSCCCCC(=O)OCCOCC [Beispiel 71, Bis(2-äthylglykoläther) der d, δ' -Thiodivaleriansäure]
Anzahl von Körnern der Rispe bei freier Bestäubung (Hirse; [2]): 112,0
Anzahl von Körnern der Rispe im Isolator (Hirse; [2]): 0,0
Prozentsatz der Sterilität (Hirse; [2]): 100,0%
Prozentsatz des Ansetzens von Körnern bei freier Bestäubung (Hirse; [2]): 86,6%

O=C(O)CCCCS(=O)(=O)CCCCC(=O)O [Beispiel 66, δ, δ' -Sulfonyldivaleriansäure]
Anzahl von Körnern der Rispe bei freier Bestäubung (Hirse; Sorte Mironowskoe 94, 10 kg/ha): 336,8
Anzahl von Körnern der Rispe im Isolator (Hirse; Sorte Mironowskoe 94, 10 kg/ha): 0,0
Prozentsatz der Sterilität (Hirse; Sorte Mironowskoe 94, 10 kg/ha): 100,0%
Prozentsatz des Ansetzens von Körnern bei freier Bestäubung (Hirse; Sorte Mironowskoe 94, 10 kg/ha): 91,9%

CCCCC(CC)COC(=O)CCCCSCCCCC(=O)OCC(CC)CCCC (centres unmarked) [Beispiel 67, Bis(2-äthylhexyläther) der δ, δ' -Thiodivaleriansäure]
Anzahl von Körnern der Rispe bei freier Bestäubung (Hirse; Sorte Mironowskoe 94, 10 kg/ha): 312,8
Anzahl von Körnern der Rispe im Isolator (Hirse; Sorte Mironowskoe 94, 10 kg/ha): 0,0
Prozentsatz der Sterilität (Hirse; Sorte Mironowskoe 94, 10 kg/ha): 100,0%
Prozentsatz des Ansetzens von Körnern bei freier Bestäubung (Hirse; Sorte Mironowskoe 94, 10 kg/ha): 85,3%

O=C(O)CCCCS(=O)(=O)CCCCC(=O)O [Beispiel 70, δ, δ' -Sulfonyldivaleriansäure]
Anzahl von Körnern der Rispe bei freier Bestäubung (Hirse; [2]): 77,1
Anzahl von Körnern der Rispe im Isolator (Hirse; [2]): 0,0
Prozentsatz der Sterilität (Hirse; [2]): 100,0%
Prozentsatz des Ansetzens von Körnern bei freier Bestäubung (Hirse; [2]): 60,0%

O=C([O-])CCCCSCCCCC(=O)[O-].[Na+].[Na+] [Beispiel 69, Natriumsälz der δ, δ'- -Thiodivaleriansäure]
Anzahl von Körnern der Rispe bei freier Bestäubung (Hirse; [2]): 105,1
Anzahl von Körnern der Rispe im Isolator (Hirse; [2]): 0,0
Prozentsatz der Sterilität (Hirse; [2]): 100,0%
Prozentsatz des Ansetzens von Körnern bei freier Bestäubung (Hirse; [2]): 81,2%

CCCCOC(=O)CCCCSCCCCC(=O)OCCCC [Beispiel 44, Bis(di-n-butyläther) der δ, δ' -Thiodivaleriansäure]
Anzahl von Körnern der Ähre bei freier Bestäubung (diploidem Roggen; [3]): 60,0
Anzahl von Körnern der Ähre im Isolator (diploidem Roggen; [3]): 0,0
Prozentsatz der Sterilität (diploidem Roggen; [3]): 100,0%
Prozentsatz des Ansetzens von Körnern bei freier Bestäubung (diploidem Roggen; [3]): 95,5%

O=C(O)CCCCS(=O)(=O)CCCCC(=O)O [Beispiel 43, Kaliumsalz der δ, δ' -Sulfonyldivaleriansäure]
Anzahl von Körnern der Ähre bei freier Bestäubung (diploidem Roggen; [4]): 53,8
Anzahl von Körnern der Ähre im Isolator (diploidem Roggen; [4]): 0,6
Prozentsatz der Sterilität (diploidem Roggen; [4]): 98,8%
Prozentsatz des Ansetzens von Körnern bei freier Bestäubung (diploidem Roggen; [4]): 98,5%

CCCCOC(=O)CCCCSCCCCC(=O)OCCCC [Beispiel 37, Bis(di-n-butyläther) der δ, δ' -Thiodivaleriansäure]
Anzahl von Körnern der Ähre bei freier Bestäubung (diploidem Roggen; [4]): 50,9
Anzahl von Körnern der Ähre im Isolator (diploidem Roggen; [4]): 0,0
Prozentsatz der Sterilität (diploidem Roggen; [4]): 100,0%
Prozentsatz des Ansetzens von Körnern bei freier Bestäubung (diploidem Roggen; [4]): 93,2%

O=C(O)CCCCS(=O)(=O)CCCCC(=O)O [Beispiel 41, δ, δ' -Sulfonyldivaleriansäure]
Anzahl von Körnern der Ähre bei freier Bestäubung (diploidem Roggen; [4]): 48,4
Anzahl von Körnern der Ähre im Isolator (diploidem Roggen; [4]): 0,1
Prozentsatz der Sterilität (diploidem Roggen; [4]): 99,8%
Prozentsatz des Ansetzens von Körnern bei freier Bestäubung (diploidem Roggen; [4]): 88,6%

O=C(O)CCCCSCCCCC(=O)O [Beispiel 68, δ, δ' Thiodivaleriansäure]
Anzahl von Körnern der Rispe bei freier Bestäubung (Hirse; [2]): 101,4
Anzahl von Körnern der Rispe im Isolator (Hirse; [2]): 0,0
Prozentsatz der Sterilität (Hirse; [2]): 100,0%
Prozentsatz des Ansetzens von Körnern bei freier Bestäubung (Hirse; [2]): 78,1%
